This is an account of results in paper PMC5802278, “Molecular and cellular mechanisms of HIF prolyl hydroxylase inhibitors in clinical trials” (Chemical Science, 2017).

Where two headings read alike, the source gives them in different places. Where only a bound is given, the exact number is not on record here.

The target in assay [1] is FIH (Homo sapiens, UniProt Q9NWT6). The assay can be described thus: LC-MS (RapidFire) FIH hydroxylation assay. The class given is biochemical.
The target in assay [2] is T1, Tpa1p (Saccharomyces cerevisiae, UniProt P40032).
T1 construct: His6 (N); made in house; host or cells: E. coli BL21(DE3)
T1 sequence (P40032 with tags, fused parts or gaps): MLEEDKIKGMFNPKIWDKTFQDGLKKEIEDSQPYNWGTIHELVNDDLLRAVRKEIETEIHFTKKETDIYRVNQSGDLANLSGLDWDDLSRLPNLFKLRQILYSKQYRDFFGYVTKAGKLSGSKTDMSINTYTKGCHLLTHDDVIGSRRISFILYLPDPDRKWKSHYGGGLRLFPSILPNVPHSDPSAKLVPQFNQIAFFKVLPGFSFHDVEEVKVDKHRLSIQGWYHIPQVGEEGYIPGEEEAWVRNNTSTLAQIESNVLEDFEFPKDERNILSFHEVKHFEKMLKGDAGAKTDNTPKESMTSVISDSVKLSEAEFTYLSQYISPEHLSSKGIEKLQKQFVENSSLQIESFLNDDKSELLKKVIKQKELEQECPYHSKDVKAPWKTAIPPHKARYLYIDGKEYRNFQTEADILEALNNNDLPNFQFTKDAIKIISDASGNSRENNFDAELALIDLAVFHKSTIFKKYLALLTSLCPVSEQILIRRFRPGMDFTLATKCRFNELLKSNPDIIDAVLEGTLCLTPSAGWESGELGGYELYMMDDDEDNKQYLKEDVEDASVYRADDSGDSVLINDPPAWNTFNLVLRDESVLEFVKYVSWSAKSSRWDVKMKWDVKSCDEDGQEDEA
The assay can be described thus: MALDI-TOF MS Tpa1p hydroxylation assay. The assay is classed as biochemical. How it is done:
MALDI-TOF MS OFD1/TPA1p hydroxylation assays13
For enzyme production, the reported procedures were used.13 E. coli BL21(DE3) cells transformed with pNIC28-His6-Ofd1 or pNIC28-His6-Tpa1pΔ2-20 were cultured to an OD600 of 0.6; recombinant protein production was induced through the addition of isopropyl β-D-1-thiogalactopyranoside (IPTG) to a concentration of 0.5 mM. The induced cultures were […]
incubated overnight at 18°C with shaking, then harvested. The induced cells were suspended in 500 mM NaCl, 40 mM imidazole, 50 mM HEPES pH 7.5, sonicated, and the His-tagged protein was purified by nickel affinity chromatography.13 Both Ofd1 and Tpa1p were buffer-exchanged into 500 mM NaCl, 5% glycerol, 1 mM DTT, 50 mM HEPES pH 7.5 following […]
consisted of Ofd1 (1 µM) or Tpa1p (2 µM) with 2OG (20 µM), L-ascorbic acid (100 µM), (NH4)2Fe(SO4)2 (50 µM), RPS23 peptide (amino acid sequence
-CONH2; 25 µM) and the […]
relevant inhibitor (initially prepared in 10% DMSO, diluted to 1% DMSO in the reaction mixture) all in 50 mM HEPES pH 7.5. Reactions were quenched after 2 min (Ofd1) or 4 min (Tpa1p) by the addition of formic acid to a final concentration of 1%. The extent of hydroxylation was monitored by MALDI-TOF MS, and the IC50 curve was fit to the data using […]
LC-MS PHD2 hydroxylation assays
The PHD2 RF-MS RapidFire liquid chromatography mass spectrometry (RF-MS) assay monitors turnover of a C-terminal oxygenase dependent domain (CODD) peptide substrate […]
-CONH2 and appearance of the hydroxylated peptide product
(Pro564) in an endpoint type assay format (typical enzyme incubation time of 15 minutes).
Tris(hydroxymethyl)aminomethane was from Fisher. Ferrous ammonium sulfate (FAS), 2-oxoglutarate (2OG) and L-ascorbic acid were from Sigma Aldrich; solutions of these were prepared freshly each day. All inhibition assays were carried out in 384-well polypropylene plates (Greiner Bio-One). PHD2 assays were performed in assay buffer (50 mM Tris.Cl pH […]
were prepared using an ECHO 550 acoustic dispenser (Labcyte) and dry dispensed into 384-well polypropylene assay plates. The final assay concentration of DMSO was kept constant at 0.5%. PHD2 protein was prepared at a concentration of 300 nM in assay buffer and 25 μl dispensed across each 384-well assay plate. […] Peptide charge states were monitored in positive mode. Ion chromatogram data were extracted for the +2 charge state and peak area data integrated using RapidFire Integrator software (Agilent). % conversion of the CODD peptide substrate to the +16 hydroxylated peptide was calculated using the equation: % conversion = 100 x hydroxylated / (hydroxylated + non-hydroxylated peptide). IC50 values were determined from non-linear regression plots using GraphPad prism. […]

Assay [3] addresses T2, PHD2 (Homo sapiens, UniProt Q9GZT9). The experiment in a line: MALDI-TOF MS PHD hydroxylation assay. The class given is biochemical. Particulars: 1μM isolated recombinant human PHD2, MALDI-TOF MS. How it is done: Protocols for in vitro PHD1–3 MALDI-TOF MS hydroxylation assays[30] and for the AlphaScreen histone demethylase assays[44] were as reported.
Although sharing homologous C-terminal catalytic domains, the N-terminal regions of PHD1–3 vary. […] In vitro inhibition assays of the clinical trial PHD inhibitors (and some of their structurally related analogue) against 1 μM recombinant human PHD1–3 were performed.
Fig. S11. In vitro PHD isoform selectivity profiling of PHD inhibitors. Inhibition of PHD inhibitors against human PHD125 -3 as assayed by MALDI-TOF MS (the protocol is described in Chan et al. ). Eight concentrations were used to obtained dose-response curve for each compound. Data points presented in the graph are mean with standard deviation, n=3. IC50 […]
(1 picture or pasted object on this page, not shown here)

The target in assay [4] is T3, PHD2 catalytic domain (residues 181-426) (Homo sapiens, UniProt Q9GZT9). The assay can be described thus: 1H CPMG NMR screening of equimolar enzyme-inhibitor mixture. The class given is binding. More on the design: The catalytic domain of human PHD2 (residues 181-426) was used in all; made in house. Particulars: equimolar enzyme-inhibitor mixture (50 µM).
T3 sequence (Q9GZT9 181-426): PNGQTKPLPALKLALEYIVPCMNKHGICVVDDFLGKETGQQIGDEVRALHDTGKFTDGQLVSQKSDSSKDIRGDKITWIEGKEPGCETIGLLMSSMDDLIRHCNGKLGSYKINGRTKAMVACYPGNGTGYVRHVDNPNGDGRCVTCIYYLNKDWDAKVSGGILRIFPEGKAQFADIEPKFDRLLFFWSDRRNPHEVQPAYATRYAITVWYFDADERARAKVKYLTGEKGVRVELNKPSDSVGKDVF
The target of assay [5] is T3, PHD2 catalytic domain (residues 181-426). The experiment in a line: AlphaScreen antibody based PHD2 assay (HIF-1α CODD peptide hydroxylation). The class given is biochemical. Also noted: 10 nM PHD2 (catalytic domain, residues 181–426); made in house. Particulars: AlphaScreen; 5 nM PHD2, 2 μM 2OG, 60 nM biotinylated CODD peptide; read-out: IC50 PHD2. As for the experimental part: AlphaScreen antibody based PHD assays were as reported[39] using 384-well white ProxiPlates™ (PerkinElmer). Reactions were performed in 50 mM HEPES buffer pH 7.5, 0.01% Tween-20 and 0.1% BSA in a final volume of 10 μL at room temperature. […] The luminescence signal was measured using an Envision (Perkin Elmer) plate reader. Data were analyzed utilizing GraphPad prism.
(Alpha assays give light when donor and acceptor beads are brought close together.)

Assay [6] concerns the target T2, PHD2. The experiment in a line: LC-MS based RapidFire PHD2 hydroxylation assay. The assay is classed as biochemical. Particulars: 150 nM isolated recombinant human PHD2, LC-MS based RapidFire assay.
Experimental: water containing 0.1% formic acid onto the mass spectrometer. Peptide charge states were monitored in positive mode. Ion chromatogram data were extracted for the +2 charge state and peak area data integrated using RapidFire Integrator software (Agilent). % conversion of the CODD peptide substrate to the +16 hydroxylated peptide was calculated using the equation: % conversion = 100 x hydroxylated / (hydroxylated + non-hydroxylated peptide). IC50 values were determined from non-linear regression plots using GraphPad prism.
The mark [7] stands for this setting: isolated recombinant enzyme, 2 µM, read-out: IC50 Tpa1p.

FIH, sequence (Q9NWT6 whole entry): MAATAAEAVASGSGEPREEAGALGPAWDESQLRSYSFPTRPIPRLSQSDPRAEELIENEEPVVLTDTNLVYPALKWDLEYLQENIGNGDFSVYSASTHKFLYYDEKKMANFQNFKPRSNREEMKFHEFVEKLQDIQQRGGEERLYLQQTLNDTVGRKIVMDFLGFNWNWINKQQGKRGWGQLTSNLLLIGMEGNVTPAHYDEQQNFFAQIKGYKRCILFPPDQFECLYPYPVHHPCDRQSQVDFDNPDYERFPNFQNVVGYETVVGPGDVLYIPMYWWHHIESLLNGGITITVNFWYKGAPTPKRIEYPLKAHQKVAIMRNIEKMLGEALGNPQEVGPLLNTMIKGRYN
T2 sequence (Q9GZT9 whole entry, the tested form may be a part): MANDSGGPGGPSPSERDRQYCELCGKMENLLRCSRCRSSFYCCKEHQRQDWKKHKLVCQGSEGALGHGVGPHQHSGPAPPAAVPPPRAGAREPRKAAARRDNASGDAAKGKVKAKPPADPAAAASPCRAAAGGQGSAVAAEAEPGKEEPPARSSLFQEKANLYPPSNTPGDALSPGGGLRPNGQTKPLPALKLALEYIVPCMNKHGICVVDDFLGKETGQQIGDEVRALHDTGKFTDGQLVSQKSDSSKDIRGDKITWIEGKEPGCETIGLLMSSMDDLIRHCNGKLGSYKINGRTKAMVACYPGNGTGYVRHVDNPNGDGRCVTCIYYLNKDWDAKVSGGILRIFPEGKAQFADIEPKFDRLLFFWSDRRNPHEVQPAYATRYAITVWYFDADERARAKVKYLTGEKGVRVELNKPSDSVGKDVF

`Cc1nc(C(=O)NCC(=O)O)c(O)c2ccc(Oc3ccccc3)cc12` [FG-4592]: the values for the IC50 in assay [1] and in assay [2] (setting [7]) were more than 100000 nM and 12800 nM, respectively.
`O=C(O)CNC(=O)C1C(=O)N(C2CCCCC2)C(=O)N(C2CCCCC2)C1=O` [GSK1278863] displayed an IC50 in assay [2] of 5100 nM.
As for `CC(C)(C)OC(=O)c1ccc(-n2[nH]cc(-n3ccnn3)c2=O)nc1` [IOX4], the IC50 worked out at 940 nM in assay [3], 3 nM in assay [5], 2300 nM in assay [2] and 540 nM in assay [6]. Further, the “binding by 1H CPMG NMR” value in assay [4] was “strong binding”.
Turning to `O=c1c(-n2ccnn2)c[nH]n1-c1cc(N2CCOCC2)ncn1` [Molidustat], the IC50 was found to be 1850 nM in assay [3]; 66000 nM in assay [1] (isolated recombinant enzyme, read-out: IC50 FIH); 7 nM in assay [5]; 3800 nM in assay [2] (setting [7]); 1320 nM in assay [6]. Besides, the “IC50 for FIH relative to PHD2” value in assay [1] (isolated protein assays, Table 1) is listed as more than 100 fold. Also, in assay [4], the “binding by 1H CPMG NMR” value is “strong binding”.

As a reminder, the IC50 is the concentration that inhibits the measured activity by half.
